Measurements published in patent US20230097975A1, “BORTEZOMIB COMPOSITIONS” (MAIA Pharmaceuticals, Inc., priority 2021, published 2023).
Values after ≈ are worked out from the molar mass of the structure shown.

Experiments:
[1] = Estimated solubility of bortezomib in select non-aqueous solvents (visual, incremental solvent addition); format: physicochemical
Protocol: The appearance of the solution was recorded.

[2] = cited from earlier work

| SMILES | Observation ([1]; N-methyl pyrrolidone (NMP)) | Observation (solvent needed to dissolve approx. 25 mg) ([1]; alcohol (ethanol)) | Observation ([1]; benzyl alcohol) | Observation ([1]; dimethyl sulfoxide (DMSO)) | Observation ([1]; glycerol) | Estimated Solubility ([1]; in benzyl alcohol) [mg/mL] | Estimated Solubility ([1]; in dimethyl sulfoxide (DMSO)) [mg/mL] | Observation ([1]; polyethylene glycol 400) | Observation (solvent needed to dissolve approx. 25 mg) ([1]; propylene glycol) | Solubility in water [2] [mg/mL] |
| --- | --- | --- | --- | --- | --- | --- | --- | --- | --- | --- |
| CC(C)C[C@H](NC(=O)[C@H](Cc1ccccc1)NC(=O)c1cnccn1)B(O)O [Bortezomib, [(1R)-3-methyl-1-[[(2S)-1-oxo-3-phenyl-2-[(pyrazinylcarbonyl)amino]propyl]amino]butyl] boronic acid] | Completely dissolved after 1 mL | Approximately 5.5 mL of solvent needed | Completely dissolved after 0.5 mL | Completely dissolved after 0.5 mL | No significant dissolution observed up to 10 mL | > 50 | > 50 | No significant dissolution observed up to 10 mL | Approximately 7 mL of solvent needed | – |
| OCc1ccccc1 [benzyl alcohol] | – | – | – | – | – | – | – | – | – | 35 (≈ 324 mM) |
